HELM strings list units from the 5' end as sugar, base in round brackets, then linkage (d deoxyribose, r ribose, m 2'-O-methyl, p phosphodiester). Strings are as the collection lists them; they lack the last nucleoside at the 3' end of the tested compound. [moe] = 2'-O-(2-methoxyethyl) (MOE); [sp] = phosphorothioate linkage; [m5C] = 5-methylcytosine
target: HTT; assay: mouse, dose not given; conditions: ASO

Substance	3 h FOB score
RNA1{[moe](G)[sp].[moe]([m5C])p.[moe]([m5C])p.[moe](A)p.[moe](T)[sp].d(A)[sp].d(T)[sp].d(T)[sp].d(T)[sp].d(T)[sp].d([m5C])[sp].d(T)[sp].d([m5C])[sp].d(A)[sp].d(A)[sp].[moe]([m5C])p.[moe](T)p.[moe](T)[sp].[moe](T)}$$$$ (last 3' nucleoside missing)	0 score 0-7
RNA1{[moe](T)[sp].[moe](G)p.[moe]([m5C])p.[moe](A)p.[moe](T)p.[moe](T)p.d(A)[sp].d([m5C])[sp].d(T)[sp].d(T)[sp].d(T)[sp].d(T)[sp].d(T)[sp].d(A)[sp].d([m5C])[sp].d(A)[sp].[moe](A)p.[moe](T)[sp].[moe](G)}$$$$ (last 3' nucleoside missing)	6.5 score 0-7
RNA1{[moe](T)[sp].[moe](G)p.[moe]([m5C])p.[moe](T)p.[moe](G)[sp].d([m5C])[sp].d(T)[sp].d([m5C])[sp].d(A)[sp].d([m5C])[sp].d(T)[sp].d([m5C])[sp].d(A)[sp].d(T)[sp].d(T)[sp].[moe](T)p.[moe]([m5C])p.[moe]([m5C])[sp].[moe](A)}$$$$ (last 3' nucleoside missing)	0 score 0-7
RNA1{[moe](T)[sp].[moe](T)p.[moe](G)p.[moe](G)p.[moe](T)p.[moe](T)p.d(A)[sp].d(G)[sp].d(T)[sp].d(T)[sp].d(T)[sp].d(T)[sp].d([m5C])[sp].d([m5C])[sp].d(T)[sp].d(T)[sp].[moe](T)p.[moe](T)[sp].[moe](A)}$$$$ (last 3' nucleoside missing)	0 score 0-7
RNA1{[moe](T)[sp].[moe]([m5C])p.[moe](A)p.[moe]([m5C])p.[moe](A)[sp].d(G)[sp].d([m5C])[sp].d(T)[sp].d(T)[sp].d(T)[sp].d(T)[sp].d(A)[sp].d(T)[sp].[moe](T)p.[moe](T)p.[moe]([m5C])[sp].[moe]([m5C])}$$$$ (last 3' nucleoside missing)	0 score 0-7
RNA1{[moe](T)[sp].[moe]([m5C])p.[moe]([m5C])p.[moe](T)p.[moe]([m5C])[sp].d(T)[sp].d(T)[sp].d(T)[sp].d([m5C])[sp].d(A)[sp].d([m5C])[sp].d(T)[sp].d(G)[sp].d([m5C])[sp].d(T)[sp].[moe](T)p.[moe]([m5C])p.[moe](T)[sp].[moe](A)}$$$$ (last 3' nucleoside missing)	3 score 0-7
RNA1{[moe]([m5C])[sp].[moe](A)p.[moe]([m5C])p.[moe](A)p.[moe](G)[sp].d([m5C])[sp].d(T)[sp].d(T)[sp].d(T)[sp].d(T)[sp].d(A)[sp].d(T)[sp].d(T)[sp].d(T)[sp].d([m5C])[sp].[moe]([m5C])p.[moe](A)p.[moe](T)[sp].[moe](A)}$$$$ (last 3' nucleoside missing)	0 score 0-7
RNA1{[moe]([m5C])[sp].[moe](A)p.[moe]([m5C])p.[moe](A)p.[moe](G)p.[moe]([m5C])p.d(T)[sp].d(T)[sp].d(T)[sp].d(T)[sp].d(A)[sp].d(T)[sp].d(T)[sp].d(T)[sp].d([m5C])[sp].d([m5C])[sp].[moe](A)p.[moe](T)[sp].[moe](A)}$$$$ (last 3' nucleoside missing)	0 score 0-7
RNA1{[moe]([m5C])[sp].[moe](A)p.[moe]([m5C])p.[moe](T)p.[moe]([m5C])[sp].d(A)[sp].d(T)[sp].d(T)[sp].d(T)[sp].d([m5C])[sp].d([m5C])[sp].d(A)[sp].d([m5C])[sp].d([m5C])[sp].d(T)[sp].[moe](T)p.[moe]([m5C])p.[moe](A)[sp].[moe](G)}$$$$ (last 3' nucleoside missing)	0 score 0-7
RNA1{[moe]([m5C])[sp].[moe](T)p.[moe](A)p.[moe](G)p.[moe](A)[sp].d(G)[sp].d(G)[sp].d(T)[sp].d([m5C])[sp].d(A)[sp].d(T)[sp].d([m5C])[sp].d(T)[sp].d(T)[sp].d([m5C])[sp].[moe](G)p.[moe](G)p.[moe](T)[sp].[moe]([m5C])}$$$$ (last 3' nucleoside missing)	2 score 0-7
RNA1{[moe]([m5C])[sp].[moe](T)p.[moe](T)p.[moe](G)p.[moe](G)p.[moe](T)p.d(T)[sp].d(A)[sp].d(G)[sp].d(T)[sp].d(T)[sp].d(T)[sp].d(T)[sp].d([m5C])[sp].d([m5C])[sp].d(T)[sp].[moe](T)p.[moe](T)[sp].[moe](T)}$$$$ (last 3' nucleoside missing)	4.25 score 0-7
